Laboratory results published in PubChem BioAssay (NCI).
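Briefly, cells in 96-well plates were exposed to five compound concentrations for 48 h, and endpoints were estimated by linear interpolation. Definition used: TGI = concentration required for complete inhibition of growth.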

Tests used:
Assay in all cases: NCI anticancer screen, dose series, 48 h
786-0 renal = system: 786-0 renal
A498 renal = system: A498 renal
A549 NSCLC = system: A549 NSCLC
ACHN renal = system: ACHN renal
BT-549 breast = system: BT-549 breast
CAKI-1 renal = system: CAKI-1 renal
CCRF-CEM leukemia = system: CCRF-CEM leukemia
COLO 205 colon = system: COLO 205 colon
DU-145 prostate = system: DU-145 prostate
EKVX NSCLC = system: EKVX NSCLC
HCC-2998 colon = system: HCC-2998 colon
HCT-116 colon = system: HCT-116 colon
HCT-15 colon = system: HCT-15 colon
HL-60(TB) leukemia = system: HL-60(TB) leukemia
HOP-62 NSCLC = system: HOP-62 NSCLC
HOP-92 NSCLC = system: HOP-92 NSCLC
HS 578T breast = system: HS 578T breast
HT29 colon = system: HT29 colon
IGROV1 ovarian = system: IGROV1 ovarian
K-562 leukemia = system: K-562 leukemia
KM12 colon = system: KM12 colon
LOX IMVI melanoma = system: LOX IMVI melanoma
M14 melanoma = system: M14 melanoma
MALME-3M melanoma = system: MALME-3M melanoma
MCF7 breast = system: MCF7 breast
MDA-MB-231 breast = system: MDA-MB-231 breast
MDA-MB-435 = system: MDA-MB-435
MDA-N = system: MDA-N
MOLT-4 leukemia = system: MOLT-4 leukemia
NCI-H226 lung = system: NCI-H226 lung
NCI-H23 lung = system: NCI-H23 lung
NCI-H460 lung = system: NCI-H460 lung
NCI/ADR-RES ovarian = system: NCI/ADR-RES ovarian
OVCAR-3 ovarian = system: OVCAR-3 ovarian
OVCAR-4 ovarian = system: OVCAR-4 ovarian
OVCAR-5 ovarian = system: OVCAR-5 ovarian
OVCAR-8 ovarian = system: OVCAR-8 ovarian
PC-3 prostate = system: PC-3 prostate
RPMI-8226 leukemia = system: RPMI-8226 leukemia
RXF 393 renal = system: RXF 393 renal
SF-268 CNS = system: SF-268 CNS
SF-295 CNS = system: SF-295 CNS
SF-539 CNS = system: SF-539 CNS
SK-MEL-2 melanoma = system: SK-MEL-2 melanoma
SK-MEL-28 melanoma = system: SK-MEL-28 melanoma
SK-MEL-5 melanoma = system: SK-MEL-5 melanoma
SK-OV-3 ovarian = system: SK-OV-3 ovarian
SN12C renal = system: SN12C renal
SNB-19 CNS = system: SNB-19 CNS
SNB-75 CNS = system: SNB-75 CNS
SR leukemia = system: SR leukemia
SW-620 colon = system: SW-620 colon
T-47D breast = system: T-47D breast
TK-10 renal = system: TK-10 renal
U251 CNS = system: U251 CNS
UACC-257 melanoma = system: UACC-257 melanoma
UACC-62 melanoma = system: UACC-62 melanoma
UO-31 renal = system: UO-31 renal
NCI-H522 lung = system: NCI-H522 lung

Measured: TGI

COc1ccc(C(C)NNC(=O)c2ccncc2)cc1OC (centres undefined)
not listed: NCI-H522 lung
> 100 µM: all other assays above

NC(N)=NS(=O)(=O)c1ccc(N=Nc2c(O)c(C(=O)O)cc3ccccc23)cc1
not listed: A498 renal | LOX IMVI melanoma | SNB-19 CNS
> 100 µM: all other assays above
